Measured values from patent US8951508B2, “Compound” (DSM IP Assets B.V., priority 2009, dated 2015).

Columns and labels:
[1] = Comparative solubility of BMDBM in 1:1 C12-15 alkyl benzoate/UV-filter mixtures, HPLC of supernatant after 1 month at RT; conditions: for effect on solubility of BMDBM in C12-15 alkyl benzoate: conclusion in words
Protocol: The solubility of BMDBM in a 1:1 (w/w) mixture of C12-15 alkyl benzoate and a polymeric, respectively a solid UV-filter (i.e. Polysilicone-15 (P-15), HY-B1, HY-B2, HY-AB, BEMT or Ethylhexyltriazone (EHT)) was determined by mixing 200 mg of BMDBM with 1000 mg of the 1:1 mixture and measuring the BMDBM concentration of the supernatant by HPLC after a storage period of 1 month at RT. Where necessary the mixture was centrifuged in order to obtain a clear supernatant.

[2] = Reduction of solvent necessary to dissolve solid UV-filter; assay type: physicochemical
[3] = e.g. C12-15 alkyl benzoate or diisopropyl sebaceate; typical value; cited from earlier work

Solubility of BMDBM in C12-15 alkyl benzoate/UV-filter 1:1 ([1]; 200 mg BMDBM in 1000 mg 1:1 mixture, 1 month at RT, label = UV-filter in mixture) | Solubility of BMDBM: Δ solubility ([1]; 1:1 mixture versus C12-15 alkyl benzoate, label = UV-filter in mixture) | effect on solubility of BMDBM in C12-15 alkyl benzoate [1] | Solubility of BMDBM: Δ solubility related to cosmetic solvent ([1]; label = UV-filter in mixture) | amount of 1:1 (w/w) mixture of PG-UVB1 and diisopropyl sebacate needed to dissolve 0.5 g BMDBM [2] | amount of 1:1 (w/w) mixture of PG-UVB2 and C12-15 alkyl benzoate necessary to dissolve 0.5 g BMDBM [2] | amount of C12-15 alkyl benzoate necessary to solubilize 0.5 g BMDBM [2] | amount of diisopropyl sebacate necessary to solubilize 0.5 g BMDBM [2] | reduction of the cosmetic solvent necessary to dissolve BMDBM ([2]; 1:1 (w/w) PG-UVB1/diisopropyl sebacate versus diisopropyl sebacate) | reduction of the cosmetic solvent necessary to dissolve BMDBM ([2]; 1:1 (w/w) PG-UVB2/C12-15 alkyl benzoate versus C12-15 alkyl benzoate) | Solubility of BMDBM in C12-15 alkyl benzoate ([1]; reference value without UV-filter, repeated per column) | SMILES | solubility in the conventional cosmetic oils [3]
3 wt.-% | −11 wt.-% | neither be enhanced | −4 wt.-% |  |  |  |  |  |  |  | CCCCC(CC)COc1ccc(-c2nc(-c3ccc(OC)cc3)nc(-c3ccc(OCC(CC)CCCC)cc3O)n2)c(O)c1 (stereo not shown) [BEMT, bis-ethylhexyloxyphenol methoxyphenyl triazine] | 
 |  |  |  | 1.4 g | 1.5 g | 3.0 g | 2.0 g | 65% | 75% | 14 wt.-% | COc1ccc(C(=O)CC(=O)c2ccc(C(C)(C)C)cc2)cc1 [BMDBM, butyl methoxydibenzoylmethane] | less than 20%
 |  | neither be enhanced |  |  |  |  |  |  |  |  | CCCCC(CC)COC(=O)c1ccc(Nc2nc(Nc3ccc(C(=O)OCC(CC)CCCC)cc3)nc(Nc3ccc(C(=O)OCC(CC)CCCC)cc3)n2)cc1 (stereo not shown) [EHT, Ethylhexyltriazone] | 
